In brackets after ≈: the same amount, converted by molar mass. Like-named read-outs stand apart in the source and are kept apart here. Where only a bound is given, the exact number is not on record here.

Experiment [1] deals with Mycobacterium tuberculosis H37Rv CNCTC My 331/88 (ATCC 27294). The experiment is described as follows: Antimycobacterial microplate alamar blue assay, M. tuberculosis H37Rv. The note with it: Mycobacterium tuberculosis. In kind it is cell-based. A general note: Resazurin is reduced to fluorescent resorufin, in cell work by metabolically active cells.
Experiment [2] has as its system M. kansasii CNCTC My 235/80 (ATCC 12478). The experiment is described as follows: Antimycobacterial microplate alamar blue assay, M. kansasii. In kind it is cell-based, Mycobacterium kansasii. The settings on record: Mycobacterium kansasii.
Experiment [3] deals with M. avium ssp. avium CNCTC My 80/72 (ATCC 15769). The experiment is described as follows: Antimycobacterial microplate alamar blue assay, M. avium. In kind it is cell-based, Mycobacterium avium. The settings on record: Mycobacterium avium.
The subject of experiment [4] is Mycobacterium smegmatis DSM 43465 (ATCC 607). As to the kind of experiment: Antimycobacterial microdilution assay, M. smegmatis. In kind it is cell-based. The note with it: Mycolicibacterium smegmatis, 48 h, Middlebrook 7H9 broth, resazurin after 48 hours; read-out: Antimycobacterial Activity MIC M. smeg. Background: In broth dilution the organism is exposed to a series of concentrations in liquid medium.

Experiment [5] deals with Mycobacterium aurum DSM 43999 (ATCC 23366). The experiment is described as follows: Antimycobacterial microdilution assay, M. aurum. In kind it is cell-based. The settings on record: Mycolicibacterium aurum, 72 h, Middlebrook 7H9 broth, resazurin after 72 hours.
Experiment [6] concerns four Gram-positive and four Gram-negative bacterial strains. As to the kind of experiment: Antibacterial screening, microdilution broth, panel of eight strains. In kind it is cell-based. The note with it: concentration scale 500–0.97 μM.
In experiment [7] the test system is Candida albicans CCM 8320 (ATCC 24433). The experiment is described as follows: Antifungal microdilution broth, C. albicans. In kind it is cell-based. The note with it: 48 h, read-out: MIC against Candida albicans.
Experiment [8] relates to C. krusei CCM 8271 (ATCC 6258). As to the kind of experiment: Antifungal microdilution broth, C. krusei. In kind it is cell-based, Candida krusei. The settings on record: Pichia kudriavzevii, 48 h; read-out: MIC against C. krusei.
For experiment [9], the system named is C. parapsilosis CCM 8260 (ATCC 22019). As to the kind of experiment: Antifungal microdilution broth, C. parapsilosis. In kind it is cell-based, Candida parapsilosis. The note with it: Lodderomyces parapsilosis, 48 h; read-out: MIC against C. parapsilosis.
For experiment [10], the system named is C. tropicalis CCM 8264 (ATCC 750). As to the kind of experiment: Antifungal microdilution broth, C. tropicalis. The note with it: Candida tropicalis, 48 h; read-out: MIC against C. tropicalis. In kind it is cell-based.
Experiment [11] relates to Aspergillus flavus CCM 8363. The experiment is described as follows: Antifungal microdilution broth, A. flavus. In kind it is cell-based. The note with it: CCM8363, 48 h, read-out: MIC against Aspergillus flavus.
Experiment [12] deals with Lichtheimia corymbifera CCM 8077. The experiment is described as follows: Antifungal microdilution broth, L. corymbifera. In kind it is cell-based. The note with it: CCM8077, 48 h, read-out: MIC against Lichtheimia corymbifera.
The test system of experiment [13] is Trichophyton interdigitale CCM 8377 (ATCC 9533). The experiment is described as follows: Antifungal microdilution broth, T. interdigitale. In kind it is cell-based. The note with it: 72 h, read-out: MIC against Trichophyton interdigitale.
In experiment [14] the test system is Aspergillus fumigatus ATCC 204305. As to the kind of experiment: Antifungal microdilution broth, A. fumigatus. In kind it is cell-based. The settings on record: ATCC204305, 48 h, read-out: MIC against Aspergillus fumigatus.

The term MIC denotes the lowest concentration that inhibits growth of the organism. Regarding `Cc1cc(NS(=O)(=O)c2ccc(N)cc2)no1` [Sulfamethoxazole, 4-amino-N-(5-methylisoxazol-3-yl)benzenesulfonamide, reference compound], the MIC in experiment [1] (pH 6.6, Middlebrook 7H9 broth pH 6.6, alamar blue, read-out: Antimycobacterial Activity MIC Mtb H37Rv) stood at 3.13 µg/mL; in experiment [1] (read-out: MIC Mtb H37Rv), 12 µM; in [2] (ATCC12478, molar value printed beside μg/mL in text, read-out: MIC M. kansasii), 12 µM; in [2] (ATCC12478, pH 6.6, Middlebrook 7H9 broth pH 6.6, alamar blue, read-out: Antimycobacterial Activity MIC M. kansasii), 3.13 µg/mL; in experiment [3] (ATCC15769, molar value printed beside μg/mL in text, read-out: MIC M. avium) it was 49 µM; in experiment [3] (ATCC15769, pH 6.6, Middlebrook 7H9 broth pH 6.6, alamar blue, read-out: Antimycobacterial Activity MIC M. avium), 12.5 µg/mL. Also, the minimum inhibitory concentration (MIC) in [4] was 250 µg/mL (≈ 987 µM); in [5] it was no less than 500 µg/mL. Also, the “antibacterial activity MIC” value in experiment [6] is reported as “not active against any of the tested bacterial strains”.

Turning to `C[C@@H](c1ncncc1F)[C@](O)(Cn1cncn1)c1ccc(F)cc1F` [voriconazole], the MIC is greater than 16 µg/mL in experiment [7]; 0.5 µg/mL (≈ 1.43 µM) in experiment [8]; 8 µg/mL (≈ 22.9 µM) in [9]; greater than 16 µg/mL in experiment [10]; greater than 16 µg/mL in experiment [11]; greater than 16 µg/mL in experiment [12]. Further, the minimal inhibitory concentration (MIC) in experiment [13] is greater than 16 µg/mL; in experiment [14], 1 µg/mL (≈ 2.86 µM).

The record behind these values is article PMC6982817, “Substituted N-(Pyrazin-2-yl)benzenesulfonamides; Synthesis, Anti-Infective Evaluation, Cytotoxicity, and In Silico Studies” (Molecules, 2019).
